According to patent US7476692B2, “Pharmaceutical compositions of safingol and methods of using the same” (priority 2003, dated 2009):
Converted amounts (≈) assume the structure as drawn. Each block holds one compound with its values, some of them ahead of it.

Experiments:
Fisher rats = conditions: Group III: 4-HPR 61 mg/kg/d D1-5 continuous iv, safingol 0; 3 male rats
sphingosine kinase = conditions: variously reported in the literature; cited from earlier work
protein kinase C (PKC) = conditions: variously reported; acting at the regulatory subunit of PKCs; cited from earlier work
[1] = Solubility/miscibility studies of safingol in solvent systems
Procedure: (§1) The following solubility/miscibility studies were performed with safingol at various concentrations.

Procedure for physchem: as §1

Structure (SMILES): CC1=C(/C=C/C(C)=C/C=C/C(C)=C/C(=O)Nc2ccc(O)cc2)C(C)(C)CCC1 [4-HPR, fenretinide]
- Toxicity: din path (Fisher rats): din path: normal
- Toxicity: dinical signs (Fisher rats): dinical signs: normal
- Toxicity: necropsy: discoloration(lung) (Fisher rats): 3/3
- Toxicity: necropsy: emaciation (Fisher rats): 1/3

- solubility (physchem; 50:50 ethanol:WFI with lactic acid, aqueous with cosolvent or surfactant or cyclodextrin): ~50000 µg/mL (≈ 166 mM)
- solubility (physchem; 60:40 t-BuOH/WFI, aqueous with cosolvent or surfactant or cyclodextrin): 15700 µg/mL (≈ 52 mM)
- solubility (physchem; DMAC, organic solvent or mixture): 6600 to 7400 µg/mL (≈ 21.9 to 24.5 mM)
- solubility (physchem; Diluent 12, organic solvent or mixture): 7220 µg/mL (≈ 23.9 mM)
- solubility (physchem; PEG 300, organic solvent or mixture): 1010 to 1060 µg/mL (≈ 3.35 to 3.52 mM)
- solubility (physchem; ethanol, organic solvent or mixture): 7500 to 8200 µg/mL (≈ 24.9 to 27.2 mM)
- solubility (physchem; lactic acid in WFI with 5 mg/mL mannitol, aqueous buffer): 10000 µg/mL (≈ 33.2 mM)
- solubility (physchem; lactic acid/WFI, aqueous buffer): > 10000 µg/mL
- solubility (physchem; lactic acid/ethanol, organic solvent or mixture): ~20000 µg/mL (≈ 66.3 mM)
- solubility (physchem; propionic acid/WFI, aqueous buffer): ≥ 5000 µg/mL
- solubility (physchem; propylene glycol, organic solvent or mixture): 1060 to 1350 µg/mL (≈ 3.52 to 4.48 mM)
- solubility (physchem; t-butanol, organic solvent or mixture): > 25000 µg/mL
- Precipitate at 2° C. to 8° C. ([1]; 50:50 Ethanol:WFI with lactic acid): precipitate formation
- Solubility (Result) ([1]; Castor oil): not soluble
- Solubility (Result) ([1]; Citric acid/WFI): not soluble
- Solubility (Result) ([1]; DMSO): not soluble
- Solubility (Result) ([1]; HC1/WFI): not soluble
- Solubility (Result) ([1]; HCl/Ethanol): not soluble
- Precipitate at 2° C. to 8° C. ([1]; Lactic acid in 2% EPL in WFI): no precipitate
- Solubility (Result) ([1]; Lactic acid in 2% EPL in WFI): solubility similar to lactic without EPL
- Precipitate at 2° C. to 8° C. ([1]; Lactic acid/Ethanol): precipitate formation
- Precipitate at 2° C. to 8° C. ([1]; Lactic acid/WFI): precipitate formation
- Solubility (Result) ([1]; Maleic acid/WFI): not soluble
- Solubility (Result) ([1]; Malic acid/WFI): not soluble
- Solubility (Result) ([1]; Methanesulfonic acid/Ethanol): not soluble
- Solubility (Result) ([1]; Neobee oil): Not soluble
- Temperature at which later found to be soluble ([1]; Neobee oil): ~80 °C
- Solubility (Result) ([1]; Pluronic F-68/WFI): not soluble
- Precipitate at 2° C. to 8° C. ([1]; Propionic acid/WFI): precipitate formation
- Solubility (Result) ([1]; Safflower oil, attempted: 0.5 mg/mL): Not soluble (attempted: 0.5 mg/mL)
- Solubility (Result) ([1]; Sesame oil, attempted: 0.5 mg/mL): Not soluble (attempted: 0.5 mg/mL)
- Solubility (Result) ([1]; Sodium Lactate/WFI): not soluble
- Solubility (Result) ([1]; Soybean oil): Not soluble
- Temperature at which later found to be soluble ([1]; Soybean oil): ~80 °C
- Solubility (Result) ([1]; Tartaric acid/WFI): not soluble
- Solubility (Result) ([1]; Tricaprylin, attempted: 0.5 mg/mL): Not soluble (attempted: 0.5 mg/mL)
- Solubility (Result) ([1]; Tween-80): not soluble
- Solubility (Result) ([1]; Valium solvent, attempted: 0.5 mg/mL): Not soluble (attempted: 0.5 mg/mL)
- Solubility (Result) ([1]; Vitamin E (α-tocopherol)): not soluble
- Effect of ethanol on solubility of safingol ([1]; lactic acid/water solutions): substantially increased
Structure (SMILES): CCCCCCCCCCCCCCC[C@H](O)[C@@H](N)CO [Safingol, (2S,3S)-2-amino-1,3-octadecanediol]
- Inhibition of sphingosine kinase (sphingosine kinase): inhibitor
- Inhibition of protein kinase C (PKC), including PKCζ (protein kinase C (PKC)): inhibitor
- Solubility (Result) ([1]; Methanesulfonic acid/WFI): not soluble, but the appearance of the safingol changed,
- Precipitates on chilling, versus non-ethanol-containing solutions ([1]; ethanol-containing safingol/lactic acid solutions chilled to 2-8° C., then warmed to room temperature): reduced in quantity and dissolved much more readily
